Test results taken from EP0670721B1, “DRUG FOR TREATMENT AND PROPHYLAXIS OF BONE AND JOINT DISEASES” (Fricker, Christian, priority 1993, dated 1995).

Experiment: Oral treatment of bone and joint diseases with raised internal pressure (own controlled trials)
Format: in vivo, Menschen, Hund, Pferd
Details: osteoarthrosis (human and veterinary), podotrochlosis of the horse
From the text: Erfindungsgemäß konnte festgestellt werden, daß bei degenerativen Gelenkserkrankungen in den Epiphysen bei am Gelenk beteiligten Knochen ein pathologisch erhöhter Innendruck vorliegt. Analog zur Pathophysiologie des Kompartmentsyndroms wird der intraossäre Druckanstieg durch eine Anreicherung von osmotisch aktiven Substanzen in Intestitium verursacht. In Anlehnung an die vorgestellte Pathophysiologie kann somit erstmals eine kausale Therapie für degenerative Gelenkserkrankungen bereitgestellt werden. Benzopyrone und Dobesilat-calcium vermögen durch Stabilisierung der Kapillarwände einerseits und durch Proteinresorption andererseits den Druck im erkrankten Kompartment abzubauen. Der Druckabbau ermöglicht in der Folge eine Normalisierung der Mikrozirkulation und somit eine Gesundung der betroffenen Gewebe. Wie eigene, kontrollierte Versuche zeigen, eignen sich Benzopyrone wie auch Dobesilat-Calcium zur kausalen Therapie dieser auf innerem Überdruck in Knochen und Gelenken beruhenden Erkrankungen. Dies trifft insbesondere in der Human- und Veterinärmedizin für den Problemkreis der Osteoarthrose und in der Veterinärmedizin für die Podotrochlose des Pferdes zu.
Das 5,6-α-Benzopyron wurde in der Tagesdosis von: • 1 - 4 mg/kg KGW beim Menschen, • 2 - 4 mg/kg KGW beim Hund und • 0,5 - 1 mg/kg KGW beim Pferd peroral verabreicht. […]

For O=S(=O)(O)c1cc(O)ccc1O [Dobesilat-Calcium], which “Eignung zur kausalen Therapie der auf innerem Überdruck in Knochen und Gelenken beruhenden Erkrankungen” value is on record?
The value was “eignen sich”.
